Assay results from patent publication US8323624B2, “S-triazine sunscreens bearing hindered para-aminobenzalmalonate/para-aminobenzalmalonamide and aminobenzoate/aminobenzamide substituents” (L'Oreal, priority 2004, dated 2012).

Test: Photostability of oily-solution films under solar simulator irradiation, quantified by HPLC
Format: physicochemical
Conditions: 2% by weight in the oil Miglyol 812, film on ground glass; irradiated one hour with Oriel solar simulator (UV-A=14.2 mW/cm^2; UV-B=0.41 mW/cm^2); HPLC vs non-irradiated controls; means over 3 samples
Experimental: The two products were dissolved at 2% by weight in the oil Miglyol 812. Approximately 10 mg of oily solution are spread over 10 cm^2 at the surface of a hollow disc made of ground glass; the amount is determined by weighing.
The films of the oily solutions are irradiated for one hour using an Oriel solar simulator (UV-A=14.2 mW/cm^2; UV-B=0.41 mW/cm^2) and then extracted with 10 ml of ethanol comprising 10% of isopropanol subjected to ultrasound for 5 min. The products are quantified by analyzing the extracts by HPLC.
HPLC conditions: column: UP5WOD-25QS, 250×4.6 mm, 5 μm, Interchrom; eluent: methanol (Comparative Example 1) and 98% methanol+2% water (Example 1); flow rate: 1 ml/min; volume injected: 10 μl; detection: diode array detector; rt (min): 5.2 (compound of the prior art) and 7.4 (compound of Example 1).
The levels of loss are determined by comparison of the amounts of product present in the irradiated samples and in the non-irradiated controls prepared simultaneously and treated in the same way (means over 3 samples; A=area/mg of solution): % loss=100×(A0−Airr)/A0

CC(C)COC(=O)C(=Cc1ccc(Nc2nc(Nc3ccc(C=C(C(=O)OCC(C)C)C(=O)OCC(C)C)cc3)nc(Nc3ccc(C=C(C(=O)OCC(C)C)C(=O)OCC(C)C)cc3)n2)cc1)C(=O)OCC(C)C [Compound (prior art), 2,4,6-Tris(diisobutyl 4′-aminobenzalmalonate)-s-triazine]
% of disappearance (mean loss): 10.0%

CCCCOC(=O)c1ccc(Nc2nc(Nc3ccc(C=C(C(=O)OCC(C)(C)C)C(=O)OCC(C)(C)C)cc3)nc(Nc3ccc(C=C(C(=O)OCC(C)(C)C)C(=O)OCC(C)(C)C)cc3)n2)cc1 [Compound of formula (1), 2,4-bis(dineopentyl 4′-aminobenzalmalonate)-6-(butyl 4″-aminobenzoate)-s-triazine]
% of disappearance (mean loss): 4.6%
